Results taken from US4624952A, “Pyridazine and pyrimidine compounds active on the central nervous system as sedatives or anticonvulsants” (Sanofi, priority 1983, dated 1986).
Where a name gives a salt, the structure may show the parent alone. Read-outs that look alike come from different tables or passages of the source.

Tests used:
[1] = tested on: spontaneous motility of female Charles River CDl mice; assay: Effect of the products on the spontaneous motility (actimeter test); format: in vivo; conditions: Mus musculus, po, 0.75 h, 45 min after administration, recorded 10 min, vs controls, * p 0,05, ** p 0,01 (Student test), read-out: Locomotor activity Score (p.cent/controls); for change in vivo at 100 mg/kg: 100 mg/kg p.o.; for change in vivo at 250 mg/kg: 250 mg/kg p.o.
Method: (§1) The sedative effect is translated by the reduction of the spontaneous motility of the animals. This was measured by the actimeter test developed by BOISSIER and SIMON (1965). The equipment was composed of actimetric cages, of the Apelab type (26×21.5×10 cm), through which pass two light rays which act on a photoelectric cell. The batches were constituted by 12 female Charles River CDl mice weighing between 20 and 24 g. The animals were placed individually in the cages 45 minutes after the oral administration of the products at the dose of 250 mg/kg or at the dose of 100 mg/kg. Each passage through a light beam was counted by an individual meter. The scores corresponding to the movements of the animals were recorded for 10 minutes and compared with the scores made by the batches of control animals, treated solely by the vehicle (0.1N HCl).

[2] = tested on: convulsions induced by an electric shock in Charles River CDl mice; assay: Antagonism of the convulsions induced by an electric shock; format: in vivo; conditions: 1 h; mouse; oral, 60 min before electric shock (12.5 volts, 0.3 seconds); read-out: Median effective dose (ED50) Antagonism of the electric shock
Method: (§2) The anti-epileptic effect of the products in the mouse was assessed on a model of convulsions provoked by an electric shock, and on a model of convulsions induced by a chemical agent: bicuculline.
The test was slightly modified from that of SWINYARD et al (1952) and ASAMI et al (1974). The equipment was composed of a Racia shock generator provided with two ocular electrodes delivering a current of 12.5 volts for 0.3 seconds. The batches were constituted by 10 Charles River CDl mice, weighing between 20 and 24 g. The products were administered by the oral route, 60 minutes before the electric shock. The animals presenting no tonic extension of the rear limbs were considered as being protected from the convulsive crisis.

[3] = Lethal dose in the mouse after acute administration; conditions: in vivo; for mortality at 72 h: po, read-out: % of toxicity (animals which die); for LD50 at 72 h: oral, calculated, read-out: LD50 (DL50)
Method: The products were administered by the oral route to batches of 5 female Charles River CDl mice, weighing between 20 and 24 g. They were solubilized in 0.1N HCl.
Toxicity was noted during the 72 hours following administration of the products. The LD50 was calculated for two products.
The results expressed in percentage of animals which die in the […] consecutive to the oral administration of the products are noted in the preceding Table.

[4] = tested on: loss of the turn-around reflex in Charles River CDl mice; assay: Potentialization of narcosis by pentobarbital; format: in vivo; conditions: po; mouse; product 60 min before pentobarbital 20 mg/kg i.p.
Method: With a view to assessing the hypnogenic power of the products, we have studied their capacity to potentialize the effects of a subnarcotic dose of pentobarbital in the mouse. The batches were constituted by 10 Charles River CDl mice, weighing between 20 and 24 g. The pentobarbital (20 mg/kg, i.p.) was administered 60 minutes after administration of the products. The criterion of sleep-induction retained was the loss of the turn-around reflex.

[5] = tested on: convulsions provoked by bicuculline in Charles River CDl mice; assay: Antagonism of the convulsions provoked by bicuculline; format: in vivo; conditions: mouse; oral, 60 min before bicuculline 0.8 mg/kg i.v.; read-out: Median effective dose (ED50) Antagonism of Bicuculline
Method: as §2
The batches were constituted by 10 Charles River CDl mice, weighing between 20 and 22 g. The products were administered by the oral route, 60 minutes before the bicuculline (0.8 mg/kg, i.v.). The appearance of tonic convulsions was noted during the 60 minutes following the injection of the bicuculline.

[6] = tested on: turnaround reflex of mice; assay: Loss of turnaround reflex (sleep-inducing effect); format: in vivo, mouse; conditions: 100 mg/kg, oral
Method: as §1
On the other hand, at the dose of 100 mg/kg, the CM 41378 provokes a loss of turnaround reflex characteristic of a sleep-inducing effect in 50% of the animals treated.

[7] = tested on: spontaneous motility of female Charles River CDl mice; assay: Effect of the products on the spontaneous motility (actimeter test); format: in vivo; conditions: Mus musculus, po, 0.75 h, 45 min after administration, recorded 10 min, vs controls, read-out: Locomotor activity Score (p.cent/controls)

Row | Compound | change in vivo at 100 mg/kg [1] | ED50 [2] | mortality at 72 h ([3]; 250 mg/kg p.o.) | mortality at 72 h ([3]; 500 mg/kg p.o.) | mortality at 72 h ([3]; 1000 mg/kg p.o.) | change in vivo at 250 mg/kg [1] | ED50 [4] | ED50 [5] | LD50 at 72 h [3] | loss of turnaround reflex characteristic of a sleep-inducing effect, animals treated [6] | change in vivo at 150 mg/kg ([7]; 150 mg/kg p.o., ** p 0,01 (Student test)) | change in vivo at 10 mg/kg ([7]; 10 mg/kg p.o., * p 0,05 (Student test))
1 | OC1CCN(c2ccc(-c3cccc(C(F)(F)F)c3)nn2)CC1 [CM 40857] | -87% | 63 mg/kg |  |  |  |  |  |  |  |  |  | 
2 | OC1CCN(c2ncc(Cl)c(-c3ccccc3Cl)n2)CC1 [CM 40858, Hydrobromide of 5-chloro-6-(2-chlorophenyl)-2-(4-hydroxy-piperidino)pyrimidine] |  | 49 mg/kg | 0% | 0% | 0% | -20% |  |  |  |  |  | 
3 | OC1CCN(c2ccc(-c3ccccc3Cl)nn2)CC1 [CM 40907, 3-(4-hydroxy-piperidino)-6-(2-chlorophenyl)pyridazine] | -66% | 16 mg/kg |  |  |  |  | 96 mg/kg | 38 mg/kg | 807 mg/kg |  |  | 
4 | OC1CCN(c2ccc(-c3ccc(Cl)cc3)nn2)CC1 [CM 41127] | -68% | 28 mg/kg | 0% | 0% |  |  |  | 98 mg/kg |  |  |  | 
5 | OC1CCN(c2ccc(-c3ccc(Cl)c(Cl)c3)nn2)CC1 [SR 41155] | -82% |  | 0% | 100% | 100% |  | 20 mg/kg |  |  |  |  | 
6 | OC1CCN(c2ccc(-c3ccccc3)nn2)CC1 [SR 41171] | -34% | 86 mg/kg | 0% | 0% | 100% |  |  | 83 mg/kg |  |  |  | 
7 | CCCC(=O)OC1CCN(c2ccc(-c3ccccc3Cl)nn2)CC1 [SR 41172, 3-(4-butyroyloxypiperidino)-6-(2-chlorophenyl)-pyridazine] | -32% | 28 mg/kg | 0% | 0% | 100% |  |  | 39 mg/kg |  |  |  | 
8 | O=C(OC1CCN(c2ccc(-c3ccccc3Cl)nn2)CC1)C1CC1 [SR 41174] | -15% | 92 mg/kg |  |  |  |  |  |  |  |  |  | 
9 | OC1CCN(c2ccc(-c3ccc(F)cc3)nn2)CC1 [SR 41184] | -91% | 48 mg/kg | 0% | 60% | 100% |  |  |  |  |  |  | 
10 | COc1ccc(-c2ccc(N3CCC(O)CC3)nn2)cc1 [SR 41185] |  |  | 0% | 0% | 0% | -78% |  |  |  |  |  | 
11 | OC1CCN(c2ccc(-c3cccc(Cl)c3)nn2)CC1 [SR 41188] | -77% | 45 mg/kg | 0% | 0% | 60% |  |  |  |  |  |  | 
12 | OC1CCN(c2ccc(-c3ccccc3Cl)nn2)C1 (stereo not drawn) [SR 41254] | -34% |  | 0% | 0% | 20% |  |  |  |  |  |  | 
13 | OCC1CCN(c2ccc(-c3ccccc3Cl)nn2)C1 (stereo not drawn) [SR 41259] | -19% |  |  |  |  |  |  |  |  |  |  | 
14 | OCCC1CCN(c2ccc(-c3ccccc3Cl)nn2)CC1 [SR 41261] | -27% |  |  |  |  |  |  |  |  |  |  | 
15 | OC1CCN(c2ccc(-c3ccc(Cl)cc3Cl)nn2)CC1 [SR 41378, 3-(4-hydroxy-piperidino)-6-(2,4-dichloro-phenyl)pyridazine] |  | 30 mg/kg |  |  |  |  | 21 mg/kg | 5.7 mg/kg | 423 mg/kg | 50% |  | 
16 | OC1CCN(c2nccc(-c3ccc(Cl)cc3)n2)CC1 [SR 41554] |  | 145 mg/kg | 0% | 0% | 0% | -26% | 66 mg/kg | 147 mg/kg |  |  |  | 
17 | OC1CCN(c2ncc(Cl)c(-c3ccc(Cl)cc3)n2)CC1 [SR 41556] |  |  | 0% | 0% | 0% | -29% |  |  |  |  |  | 
18 | OC1CCN(c2ccc(-c3ccccc3F)nn2)CC1 [SR 41558] |  | 115 mg/kg | 0% | 0% | 80% | -93% |  | 30 mg/kg |  |  |  | 
19 | Oc1ccccc1-c1ccc(N2CCC(O)CC2)nn1 [SR 41559] |  |  | 0% | 0% | 0% | -66% |  |  |  |  |  | 
20 | OCCN(CCO)c1nccc(-c2ccc(Cl)cc2)n1 [SR 41590] |  |  | 0% | 0% | 40% |  |  |  |  |  |  | 
21 | OCCN(CCO)c1nccc(-c2ccccc2Cl)n1 [SR 41591] |  |  | 0% | 0% | 0% |  |  |  |  |  |  | 
22 | O=[N+]([O-])c1ccccc1-c1ccc(N2CCC(O)CC2)nn1 [SR 41673, 3-(4-hydroxy-piperidino)-6-(2-nitrophenyl)-pyridazine] |  | 27 mg/kg | 0% | 0% | 20% | -61% |  | 81 mg/kg |  |  |  | 
23 | CNC(=O)OC1CCN(c2ccc(-c3ccccc3Cl)nn2)CC1 [SR 41820, 3-(4-methylcarbamoyloxy-piperidino)-6-(2-chloro-phenyl)pyridazine] |  | 10 mg/kg |  |  |  |  |  | 13 mg/kg |  |  |  | 
24 | OC1CCN(c2ccc(-c3cc(Cl)ccc3Cl)nn2)CC1 [SR 41932] |  | 30 mg/kg | 0% | 0% | 100% |  |  | 131 mg/kg |  |  | -59% | 
25 | CN(C)C(=O)OC1CCN(c2ccc(-c3ccccc3Cl)nn2)CC1 [SR 42095] |  | 2 mg/kg |  |  |  |  | 7.4 mg/kg | 1.6 mg/kg |  |  |  | -28%
26 | OC1CCN(c2ccc(-c3cccc4ccccc34)nn2)CC1 [SR 42399] |  | 38 mg/kg | 0% | 0% |  |  |  |  |  |  |  | 
27 | Clc1ccccc1-c1ccc(N2CCC3(CC2)OCCO3)nn1 [SR 42487, 3-[1,4-dioxa-8-aza-spiro[4,5]decane-8-yl]-6-(2-chloro-phenyl)pyridazine] | -42% | 57 mg/kg | 0% | 0% | 0% |  |  |  |  |  |  | 
28 | O=C1CCN(c2ccc(-c3ccccc3Cl)nn2)CC1 [SR 42488, 3-(4-oxo-iperidino)-6-(2-chlorophenyl)pyridazine] |  | 40 mg/kg | 0% | 0% | 0% |  | 67 mg/kg | 35 mg/kg |  |  |  | 
